Data reported in US20250340569A1, “INHIBITORS OF KIF18A AND USES THEREOF” (Insilico Medicine IP Limited, priority 2023, published 2025).

Columns and labels:
Kif18A = molecular target: T1, Kif18A (Homo sapiens, UniProt Q8NI77); test: KIF18A assay (ADP Glo); conditions: biochemical assay, ADP Glo luminescence
T1 sequence (Q8NI77 1-898): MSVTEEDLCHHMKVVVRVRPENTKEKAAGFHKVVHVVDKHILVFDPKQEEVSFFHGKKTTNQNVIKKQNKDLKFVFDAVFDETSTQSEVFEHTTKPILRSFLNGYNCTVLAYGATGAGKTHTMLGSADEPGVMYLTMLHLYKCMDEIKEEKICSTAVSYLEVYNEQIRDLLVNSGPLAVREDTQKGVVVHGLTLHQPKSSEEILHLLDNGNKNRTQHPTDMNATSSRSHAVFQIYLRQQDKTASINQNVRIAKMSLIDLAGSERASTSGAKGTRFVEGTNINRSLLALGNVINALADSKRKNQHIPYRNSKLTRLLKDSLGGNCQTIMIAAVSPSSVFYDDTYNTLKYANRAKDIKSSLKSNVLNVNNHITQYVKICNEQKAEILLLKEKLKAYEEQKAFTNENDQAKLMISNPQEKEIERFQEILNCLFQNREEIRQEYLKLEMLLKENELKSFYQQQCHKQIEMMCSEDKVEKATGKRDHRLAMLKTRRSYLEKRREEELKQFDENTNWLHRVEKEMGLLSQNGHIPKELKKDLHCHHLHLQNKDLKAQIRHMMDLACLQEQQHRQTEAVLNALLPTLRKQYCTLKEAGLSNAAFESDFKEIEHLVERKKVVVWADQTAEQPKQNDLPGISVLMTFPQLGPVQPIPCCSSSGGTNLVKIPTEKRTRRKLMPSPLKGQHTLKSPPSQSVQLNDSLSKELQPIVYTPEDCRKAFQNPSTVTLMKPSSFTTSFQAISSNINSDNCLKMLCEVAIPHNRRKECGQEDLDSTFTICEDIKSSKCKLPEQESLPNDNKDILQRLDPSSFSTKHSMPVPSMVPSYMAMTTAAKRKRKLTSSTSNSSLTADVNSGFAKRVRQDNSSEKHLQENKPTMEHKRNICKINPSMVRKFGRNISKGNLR
Description: The KIF18A assay was performed as follows:
1.1. Prepared 1× Kinase Buffer
• a) Added 40 μL test compound to 384-well dilution plate • b) Diluted compound 1:3 in succession in DMSO for each column for 10 pts • c) Transferred 0.1 μL diluted compound solution to 384 assay plate using Echo, each column containing 2 replicates • d) Added 5 μL enzyme working solution to 384-well assay plate, centrifuge 1000 RPM for 1 min e) Incubated at 25° C. for 15 min • f) Added 5 μL ATP working solution to initiate reaction • g) Incubated at 25° C. for 60 min • h) Added 10 μL ADP Glo reagent, centrifuge 1000 RPM for 1 min • i) Incubated at 25° C. for 60 min • j) Added 20 μL kinase detection reagent, centrifuge 1000 RPM for 1 min • k) Incubated at 25° C. for 60 min • l) Read Luminescence Signal on Envision 2104 plate reader.
1.3. Data Analysis—Calculated IC50 and Plot Dose-Response Curve of Compounds:
Calculated IC50 by fitting % Inhibition values and log of compound concentrations to nonlinear regression (dose response−variable slope) with GraphPad 6.0.
[formula] • X: log of inhibitor concentration; Y: % Inhibition

OVCAR-3 = test: OVCAR3 CTG assay; type: cell-based; conditions: Homo sapiens, OVCAR-3, 144 h; CellTiter-Glo, 6 days incubation
Text: Example B2: OVCAR3 CTG Assay
• a) Preparation of complete medium: Added FBS and appropriate additives according to the information sheet provided by the vendor. Mix gently. • b) Checked the cell name and complete medium and passage number marked on the flask. For adherent cell lines, refer to c to k. For suspension cell lines, refer to g to k. • c) Removed and discarded culture medium using a vacuum pump. • d) Briefly rinsed the cell layer with 0.25% (w/v) Trypsin-0.038% (w/v) EDTA solution to remove all traces of serum that contains trypsin inhibitor. • e) Added 3.0 ml of Trypsin-EDTA solution to flask and observed cells under an inverted microscope until cell layer is dispersed. • f) Added 9.0 ml of complete growth medium and aspirated cells by gently pipetting. • g) Transfered the cell suspension to a centrifuge tube and centrifuged at 1000 rpm for 4 minutes. • h) Discarded the supernatant using a vacuum pump. • i) Added appropriate volume of complete medium. Suspended the cell pellet by gently pipetting. • j) Counted the cell numbers with Vi-cell XR and adjusted cells to appropriate density. • k) Added 190 μL of cell suspension to 96-well opaque-walled clear bottom plates according to the planned plate layout and placed the plates in the CO2 incubator overnight.
2) Compound Stock Preparation:
• a) Plate preparation of testing articles:
The compounds were dissolved in DMSO to prepare 10 mM stock solution. The start working concentration (2 mM) was prepared with DMSO.
b) Staurosporine Plate Preparation:
0.4 mM Staurosporine was prepared in DMSO at working concentration.
The 20× compound containing medium was prepared according to the plate map. 10 μL of 20× compound containing medium was added into each well of the assay plates. Centrifuged at 1000 rpm for 1 minute. The total dilution was 200-fold.
3) Cells were Incubated with the Compounds for 6 Days at 5% CO2, 37° C.
Assay Measurement for CTG Assay
1) Preparation of Reagents
• a) Thawed the CellTiter-Glo buffer and equilibrated to room temperature prior to use. • b) Equilibrated the lyophilized CellTiter-Glo substrate to room temperature prior to use. • c) Transfered the appropriate volume of CellTiter-Glo buffer into the amber bottle containing CellTiter-Glo substrate to reconstitute the lyophilized enzyme/substrate mixture. This formed the CellTiter-Glo reagent. • d) Mixed by gently vortexing, swirling or by inverting the contents to obtain a homogeneous solution. The CellTiter-Glo substrate went into solution easily in less than one minute.
• a) Observed the cell morphology under an inverted microscope after corresponding treatment. • b) Equilibrated the plate and its contents to room temperature for approximately 30 minutes. • c) Added 100 μL of CellTiter-Glo reagent to the assay plate by Multidrop Combi instrument. • d) Mixed contents for 10 minutes on an orbital shaker to induce cell lysis. • e) Allowed the plate to incubate at room temperature for 10 minutes to stabilize luminescent signal. • f) Pasted the clear bottom with white back seal and record luminescence with Envision. The settings should be: Luminescence, measurement time 0.1 s.

| Structure (SMILES) | IC50 (Kif18A) [nM] | IC50 (OVCAR-3) [nM] |
| --- | --- | --- |
| C[C@H]1CNc2cccc(n2)NC(=O)c2ccc(NS(=O)(=O)CCO)cc2N2CCC(C(F)(F)F)(CC2)COC1 [EX56-A] | < 10 | 10 to 100 |
| Cc1cc2nc(n1)NCCC(C)OCC1(C)CCN(CC1)c1cc(NS(=O)(=O)CCO)ccc1C(=O)N2 (centres unmarked) [EX38] | 10 to 100 | 10 to 100 |
| Cc1cc2nc(n1)NCCCCOC1(C)CCN(CC1)c1cc(NS(=O)(=O)CCO)ccc1C(=O)N2 [EX18] | 10 to 100 | 100 to 1000 |
| Cc1cc2nc(n1)NCCOC[C@@H]1CCC[C@H](COc3cc(NS(=O)(=O)CCO)ccc3C(=O)N2)C1 (relative stereo) [EX106] | 100 to 1000 | 1000 to 10000 |
| Cc1cc2nc(n1)NCC(F)COCC1(C)CCN(CC1)c1cc(NS(=O)(=O)CCO)ccc1C(=O)N2 (centres unmarked) [EX24] | < 10 | 10 to 100 |
| Cc1cc2nc(n1)NCCOCCC1(C)CCN(CC1)c1cc(NS(=O)(=O)CCO)ccc1C(=O)N2 [EX23] | 10 to 100 | 10 to 100 |
| Cc1cc2nc(n1)NCCCOCC1(C(F)(F)F)CCN(CC1)c1cc(NS(=O)(=O)CCO)ccc1C(=O)N2 [EX17] | < 10 | < 10 |
| CNS(=O)(=O)c1ccc2c(c1)N1CCC(C)(CC1)COCCCN(C)c1nc(C)cc(n1)NC2=O [EX16] | 10 to 100 | 100 to 1000 |
| Cc1cc2nc(n1)NCCCCC1(C)CCN(CC1)c1cc(NS(=O)(=O)CCO)ccc1C(=O)N2 [EX37] | < 10 | 10 to 100 |
| Cc1cc2nc(n1)N(C)CCOCCC1(C)CCN(CC1)c1cc(NS(=O)(=O)CCO)ccc1C(=O)N2 [EX09] | 10 to 100 | 100 to 1000 |
| Cc1cc2nc(n1)N(C)CCOCC1(C)CCN(CC1)c1cc(NS(=O)(=O)CCO)ccc1C(=O)N2 [EX04] | 10 to 100 | 10 to 100 |
| Cc1cc2nc(n1)NCC(C)COCC1(C(F)(F)F)CCN(CC1)c1nc(NC(C)(C)CO)ccc1C(=O)N2 (centres unmarked) [EX55] | 10 to 100 | 10 to 100 |
| Cc1cc2nc(n1)NCC(C)COCC1(C)CCN(CC1)c1cc(NS(=O)(=O)CCO)ccc1C(=O)N2 (centres unmarked) [EX19] | < 10 | < 10 |
| Cc1cc2nc(n1)OCCOCC1(C)CCN(CC1)c1cc(NS(=O)(=O)CCO)ccc1C(=O)N2 [EX03] | 10 to 100 | 100 to 1000 |
| CC12CCN(CC1)c1cc(NS(C)(=O)=O)ccc1C(=O)Nc1cccc(n1)OCCCOC2 [EX08] | < 10 | 100 to 1000 |
| CN1CCCOCC2(C(F)(F)F)CCN(CC2)c2cc(NS(=O)(=O)CCO)ncc2C(=O)Nc2cccc1n2 [EX82] | 10 to 100 | 10 to 100 |
| Cc1cc2nc(n1)N(C)CCCOCC1(C)CCN(CC1)c1cc(S(=O)(=O)NC(C)(C)C)ccc1C(=O)N2 [EX15] | 10 to 100 | 100 to 1000 |
| Cc1cc2nc(n1)N1CCO[C@H](COCC3(C(F)F)CCN(CC3)c3cc(NS(=O)(=O)CCO)ccc3C(=O)N2)C1 [EX113-A] | 10 to 100 | < 10 |
| Cc1cc2nc(n1)N1CCC(F)(F)[C@@H](CCCC3(C)CCN(CC3)c3cc(NS(=O)(=O)CCO)ccc3C(=O)N2)C1 [EX115-B] | 10 to 100 | 10 to 100 |

| Structure (SMILES) | IC50 (Kif18A) [nM] | IC50 (OVCAR-3) [nM] |
| --- | --- | --- |
| CC12CCN(CC1)c1cc(NS(=O)(=O)CCO)ccc1C(=O)Nc1cccc(n1)OCCOC2 [EX01] | 10 to 100 | 100 to 1000 |
| Cc1cc2nc(n1)NC(C)CCOCC1(C)CCN(CC1)c1cc(NS(=O)(=O)CCO)ccc1C(=O)N2 (centres unmarked) [EX20] | 10 to 100 | 10 to 100 |
| CN1CCCOCC2(C(F)(F)F)CCN(CC2)c2cc(NS(=O)(=O)CCO)ccc2C(=O)Nc2ccnc1n2 [EX74] | < 10 | 10 to 100 |
| Cc1cc2nc(n1)N(C1CC1)CCCOCC1(C(F)(F)F)CCN(CC1)c1cc(NS(=O)(=O)CCO)ccc1C(=O)N2 [EX45] | 10 to 100 | 100 to 1000 |
| [2H]C([2H])([2H])N1CCCOCC2(C(F)(F)F)CCN(CC2)c2cc(NS(=O)(=O)CCO)ccc2C(=O)Nc2cccc1n2 [EX48] | 10 to 100 | 10 to 100 |
| CN1CCCOCC2(C(F)(F)F)CCN(CC2)c2nc(NS(=O)(=O)CCO)ccc2C(=O)Nc2cccc1n2 [EX72] | < 10 | 100 to 1000 |
| CC1CNc2cc(ccn2)NC(=O)c2ccc(NS(=O)(=O)CCO)cc2N2CCC(C(F)(F)F)(CC2)COC1 (centres unmarked) [EX57] | 10 to 100 | 10 to 100 |
| COC1CNc2nc(C)cc(n2)NC(=O)c2ccc(NS(=O)(=O)CCO)cc2N2CCC(C)(CC2)COC1 (centres unmarked) [EX31] | 10 to 100 | 10 to 100 |
| Cc1cc2nc(n1)NCCCOCC1(C)CCN(CC1)c1cc(S(=O)(=O)NC(C)(C)C)ccc1C(=O)N2 [EX25] | 10 to 100 | < 10 |
| O=C1Nc2ccc(=O)n(n2)CCCCOCC2(C(F)(F)F)CCN(CC2)c2cc(NS(=O)(=O)CCO)ccc21 [EX50] | 10 to 100 | 10 to 100 |
| Cc1cc2nc(n1)N(C)C[C@H](C)COCC1(C)CCN(CC1)c1cc(NS(=O)(=O)CCO)ccc1C(=O)N2 [EX33-A] | 10 to 100 | 100 to 1000 |
| Cc1cc2nc(n1)NCCCOCC1(C)CCN(CC1)c1cc(NS(=O)(=O)CCO)ccc1C(=O)N2 [EX12] | 10 to 100 | 10 to 100 |
| Cc1cc2nc(n1)NCCCCCC1(C)CCN(CC1)c1cc(NS(=O)(=O)CCO)ccc1C(=O)N2 [EX34] | < 10 | < 10 |
| Cc1cc2nc(n1)NCCCOCC1(C)CCN(CC1)c1cc(S(N)(=O)=O)ccc1C(=O)N2 [EX25-A] | 10 to 100 | 10 to 100 |
| CN1CCCOCC2(C(F)(F)F)CCN(CC2)c2cc(NS(=O)(=O)CCO)ccc2C(=O)Nc2ccc(C#N)c1n2 [EX73] | 10 to 100 | 10 to 100 |
| [2H]C([2H])([2H])N1CCCOCC2(C(F)(F)F)CCN(CC2)c2cc(NS(=O)(=O)CCO)ccc2C(=O)Nc2ccnc1c2 [EX58] | 10 to 100 | 10 to 100 |
| CN1CCOCC2(C)CCN(CC2)c2cc(NS(=O)(=O)CCO)ccc2C(=O)Nc2cccc(n2)C1=O [EX21] | 100 to 1000 | 100 to 1000 |
| C[C@@H]1CCCC2(C(F)F)CCN(CC2)c2cc(NS(=O)(=O)CCO)ccc2C(=O)Nc2cccc(n2)NC1 [EX102-A] | < 10 | 10 to 100 |
